According to BindingDB's records for doi:10.1016/S0960-894X(00)80255-3 (1991):

What follows are compounds tested against Tyrosine-protein kinase Lck (Homo sapiens, UniProt P06239) (assay: ChEBML_210745).
Tyrosine-protein kinase Lck, sequence (P06239 whole entry): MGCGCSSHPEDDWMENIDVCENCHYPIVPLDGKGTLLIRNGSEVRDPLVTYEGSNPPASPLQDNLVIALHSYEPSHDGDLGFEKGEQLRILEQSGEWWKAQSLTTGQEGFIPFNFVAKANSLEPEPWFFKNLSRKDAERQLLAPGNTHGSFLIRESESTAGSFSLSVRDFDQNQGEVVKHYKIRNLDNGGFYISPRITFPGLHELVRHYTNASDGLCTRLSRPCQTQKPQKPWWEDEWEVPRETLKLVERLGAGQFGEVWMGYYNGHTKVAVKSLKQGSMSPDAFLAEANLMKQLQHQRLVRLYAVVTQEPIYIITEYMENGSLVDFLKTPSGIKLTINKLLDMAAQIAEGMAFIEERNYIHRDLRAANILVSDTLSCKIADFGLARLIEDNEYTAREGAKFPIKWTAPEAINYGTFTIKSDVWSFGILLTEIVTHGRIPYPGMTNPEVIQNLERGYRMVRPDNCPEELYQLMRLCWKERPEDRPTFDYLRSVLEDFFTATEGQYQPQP
Description: Inhibitory concentration against phosphorylation of angiotensin I catalyzed by protein-tyrosine kinase p56lck
With COc1ccc(N=NCc2cccc(O)c2O)cc1 [3-[(4-Methoxy-phenyl)-hydrazonomethyl]-benzene-1,2-diol] the IC50 was 310 µM. In the case of Brc1ccc(N=NCc2ccccn2)cc1 [N-(4-Bromo-phenyl)-N'-[1-pyridin-2-yl-meth-(E)-ylidene]-hydrazine], the IC50 is reported as > 2900 µM. COc1ccc(N=NCc2cc(O)ccc2O)cc1 [2-[(4-Methoxy-phenyl)-hydrazonomethyl]-benzene-1,4-diol] gave an IC50 of 310 µM. In the case of c1ccc(N=NCc2ccncc2)cc1 [N-Phenyl-N'-[1-pyridin-4-yl-meth-(E)-ylidene]-hydrazine], the IC50 is reported as > 4060 µM. With O=[N+]([O-])c1cccc(C/N=N/c2ccccc2)c1 [N-[1-(3-Nitro-phenyl)-meth-(E)-ylidene]-N'-phenyl-hydrazine] the IC50 was > 3320 µM. For O=[N+]([O-])c1ccc(C/N=N/c2ccccc2)cc1, the IC50 was > 3320 µM. With c1ccc(N=NCc2ccccn2)cc1 [N-Phenyl-N'-[1-pyridin-2-yl-meth-(E)-ylidene]-hydrazine] the IC50 was > 4060 µM. For COc1ccc(CN=Nc2ccc(Br)cc2)cc1O [5-[(4-Bromo-phenyl)-hydrazonomethyl]-2-methoxy-phenol], the IC50 was > 2490 µM. O=[N+]([O-])c1ccc(/N=N\Cc2cccc(O)c2O)c([N+](=O)[O-])c1 [3-[(2,4-Dinitro-phenyl)-hydrazonomethyl]-benzene-1,2-diol] was tested, and the IC50 was > 2510 µM. In the case of Brc1ccc(N=NCc2ccncc2)cc1 [N-(4-Bromo-phenyl)-N'-[1-pyridin-4-yl-meth-(E)-ylidene]-hydrazine], the IC50 is reported as > 2900 µM. In the case of Oc1ccc(Br)cc1CN=Nc1ccccc1 [4-Bromo-2-(phenyl-hydrazonomethyl)-phenol], the IC50 is reported as > 2600 µM. With Brc1ccc(N=NCc2cccnc2)cc1 [N-(4-Bromo-phenyl)-N'-[1-pyridin-3-yl-meth-(E)-ylidene]-hydrazine] the IC50 was > 2900 µM.
